{
  "source": "patent US3965109A",
  "about": "“Certain aryl amino pyridines” (priority 1971, dated 1976)",
  "key": {"[1]": {"system": "Puccinia recondita (wheat)", "assay": "Fungicidal test against foliar disease A (foliage spray plus soil drench)", "assay_type": "in vivo", "settings": "100 ppm spray and drench; 10 days"}, "[2]": {"system": "Plasmopara viticola (vine)", "assay": "Fungicidal test against foliar disease C (foliage spray plus soil drench)", "assay_type": "in vivo", "settings": "100 ppm spray and drench; 10 days"}, "Uncinula necator (vine)": {"system": "Uncinula necator (vine)", "assay": "Fungicidal test against foliar disease D (foliage spray plus soil drench)", "assay_type": "in vivo", "settings": "100 ppm spray and drench; 10 days"}, "[3]": {"system": "Piricularia oryzae (rice)", "assay_type": "in vivo", "settings": "100 ppm spray and drench; 7 days"}, "[4]": {"system": "Tetranychus telarius (red spider mites, adults)", "assay": "Pest toxicity test", "assay_type": "in vivo", "settings": "0.1% by weight; French bean; 3 days"}, "[5]": {"system": "Tetranychus telarius (red spider mites, eggs)", "assay": "Pest toxicity test", "assay_type": "in vivo", "settings": "0.1% by weight; French bean; 3 days"}, "Aphis fabae": {"system": "Aphis fabae", "assay": "Pest toxicity test", "assay_type": "in vivo", "settings": "0.1% by weight; broad bean; 2 days"}, "Megoura viceae": {"system": "Megoura viceae", "assay": "Pest toxicity test", "assay_type": "in vivo", "settings": "0.1% by weight; broad bean; 2 days"}, "[6]": {"system": "Aedes aegypti (mosquito larvae)", "assay": "Pest toxicity test", "assay_type": "in vivo", "settings": "0.01% by weight; water; 1 day"}, "[7]": {"system": "Aedes aegypti (mosquito adults)", "assay": "Pest toxicity test", "assay_type": "in vivo", "settings": "0.01% by weight; plywood; 1 day"}, "[8]": {"system": "Musca domestica (houseflies)", "assay": "Pest toxicity test, contact test", "assay_type": "in vivo", "settings": "0.1% by weight; milk/sugar; 2 days; flies sprayed directly"}, "[9]": {"system": "Pieris brassicae (cabbage white caterpillars)", "assay": "Pest toxicity test", "assay_type": "in vivo", "settings": "0.1% by weight, 2 days"}, "[10]": {"system": "Plutella maculipennis (diamond back moth larvae)", "assay": "Pest toxicity test", "assay_type": "in vivo", "settings": "in vivo"}, "[11]": {"system": "Phaedon cochleariae (mustard beetles)", "assay": "Pest toxicity test", "assay_type": "in vivo", "settings": "in vivo"}, "[12]": {"system": "Agriolimax reticulatus (slugs)", "assay": "Molluscicidal activity test", "assay_type": "in vivo, Agriolimax reticulatus (Mull)", "settings": "pellet with 4% by weight; 6 days; 10°C", "procedure,_shortened": "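Slugs were starved for 24 hours, then housed two per dish, in duplicate, under high humidity at 10°C. They fed on pellets dried to contain 4% w/w of test compound. Mortality was scored on day 6.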"}, "Lettuce": {"system": "Lettuce", "assay": "Herbicidal test, pre- and post-emergence", "assay_type": "in vivo", "settings": "10 lb/acre (11.2 kg/ha); scale 0 (no effect) to 3 (complete kill)"}, "Tomato": {"system": "Tomato", "assay": "Herbicidal test, pre- and post-emergence", "assay_type": "in vivo", "settings": "10 lb/acre (11.2 kg/ha); scale 0 (no effect) to 3 (complete kill)"}, "Wheat [13]": {"system": "Wheat", "assay": "Herbicidal test, pre- and post-emergence", "assay_type": "in vivo", "settings": "10 lb/acre (11.2 kg/ha); scale 0 (no effect) to 3 (complete kill)"}, "Maize": {"system": "Maize", "assay": "Herbicidal test, pre- and post-emergence", "assay_type": "in vivo", "settings": "10 lb/acre (11.2 kg/ha); scale 0 (no effect) to 3 (complete kill)"}, "Sugar beet": {"system": "Sugar beet", "assay": "Further herbicidal test, various rates", "assay_type": "in vivo", "settings": "5 lb/acre; scale 0 to 5 (complete kill)"}, "Kale": {"system": "Kale", "assay": "Further herbicidal test, various rates", "assay_type": "in vivo", "settings": "5 lb/acre; scale 0 to 5 (complete kill)"}, "Carrot": {"system": "Carrot", "assay": "Further herbicidal test, various rates", "assay_type": "in vivo", "settings": "5 lb/acre; scale 0 to 5 (complete kill)"}, "Pea": {"system": "Pea", "assay": "Further herbicidal test, various rates", "assay_type": "in vivo", "settings": "5 lb/acre; scale 0 to 5 (complete kill)"}, "Onion": {"system": "Onion", "assay": "Further herbicidal test, various rates", "assay_type": "in vivo", "settings": "5 lb/acre; scale 0 to 5 (complete kill)"}, "Barley [14]": {"system": "Barley", "assay": "Further herbicidal test, various rates", "assay_type": "in vivo", "settings": "5 lb/acre; scale 0 to 5 (complete kill)"}, "Rice": {"system": "Rice", "assay": "Further herbicidal test, various rates", "assay_type": "in vivo", "settings": "5 lb/acre; scale 0 to 5 (complete kill)"}, "Oat": {"system": "Oat", "assay": "Further herbicidal test, various rates", "assay_type": "in vivo", "settings": "5 lb/acre; scale 0 to 5 (complete kill)"}, "Barley [15]": {"system": "Barley", "assay": "Selective herbicidal activity", "assay_type": "in vivo", "text": "(§1) This Example illustrates the selective herbicidal activity of compounds No. 5 and 12 of Table 1. The compounds, formulated as in Example 5 were sprayed on to pots of soil previously sown with seeds of the plant species shown in Tables 13 and 14.\n(§2) Table 14 gives the results for compound No. 12 of Table 1 The figures are assessments of damage to the plants 23 days after treatment, on a scale of 0 to 5 where 0 is no effect and 5 is complete kill"}, "Wheat [16]": {"system": "Wheat", "assay": "Selective herbicidal activity", "assay_type": "in vivo", "text": "as §1, §2"}, "broadleaved plants": {"system": "broadleaved plants", "assay": "Selective herbicidal activity", "assay_type": "in vivo", "settings": "Tables 13 and 14", "text": "as §1, §2"}, "Redshank": {"system": "Redshank", "assay": "Selective herbicidal activity", "assay_type": "in vivo, Polygonum persicaria", "settings": "2 kg/hectare; 23 days; scale 0 to 5 (complete kill)", "text": "as §1\nRedshank Polygonum persicaria"}, "Mayweed": {"system": "Mayweed", "assay": "Selective herbicidal activity", "assay_type": "in vivo, Tripleurospermum maritimum ssp. inodorum", "settings": "2 kg/hectare; 23 days; scale 0 to 5 (complete kill)", "text": "as §1\nMayweed Tripleurospermum maritimum"}, "Speedwell": {"system": "Speedwell", "assay": "Selective herbicidal activity", "assay_type": "in vivo, Veronica spp", "settings": "2 kg/hectare; 23 days; scale 0 to 5 (complete kill)", "text": "as §1"}, "Knotgrass": {"system": "Knotgrass", "assay": "Selective herbicidal activity", "assay_type": "in vivo, Polygonum aviculare", "settings": "2 kg/hectare; 23 days; scale 0 to 5 (complete kill)", "text": "as §1, §2\nKnotgrass Polygonum aviculare"}, "Corn Marigold": {"system": "Corn Marigold", "assay": "Selective herbicidal activity", "assay_type": "in vivo, Chrysanthemum segetum", "settings": "2 kg/hectare; 23 days; scale 0 to 5 (complete kill)", "text": "as §1, §2\nCorn marigold Chrysanthemum segetum"}, "[17]": {"settings": "2 kg/hectare, 23 days, scale 0 to 5 (complete kill)"}},
  "data": [
    {"smiles": "O=[N+]([O-])c1c(F)c(F)c(Nc2c(Cl)c(F)nc(F)c2Cl)c(F)c1F", "note": "[Compound 12, 3,5-Dichloro-2,6-difluoro-4(4-nitro 2,3,5,6-tetrafluoroanilino) pyridine]", "values": [
      {"measurement": "Amount of disease grading, disease A", "setting": "[1]", "value": "2 (6 to 25)"},
      {"measurement": "Amount of disease grading, disease C", "setting": "[2]", "value": "3 (0 to 5)"},
      {"measurement": "Amount of disease grading, disease D", "setting": "Uncinula necator (vine)", "value": "3 (0 to 5)"},
      {"measurement": "Amount of disease grading, disease E", "setting": "[3]", "value": "0 (61 to 100)"},
      {"measurement": "Mortality grading (kill)", "setting": "[4]", "value": "3 (3 represents over 90% kill)"},
      {"measurement": "Mortality grading (kill)", "setting": "[5]", "value": "3 (3 represents over 90% kill)"},
      {"measurement": "Mortality grading (kill)", "setting": "Aphis fabae", "value": "3 (3 represents over 90% kill)"},
      {"measurement": "Mortality grading (kill)", "setting": "Megoura viceae", "value": "3 (3 represents over 90% kill)"},
      {"measurement": "Mortality grading (kill)", "setting": "[6]", "value": "3 (3 represents over 90% kill)"},
      {"measurement": "Mortality grading (kill)", "setting": "[7]", "value": "0 (O represents less than 30% kill)"},
      {"measurement": "Mortality grading (kill), contact test", "setting": "[8]", "value": "2 (2 represents 60 - 90% kill)"},
      {"measurement": "Mortality grading (kill)", "setting": "[9]", "value": "0 (O represents less than 30% kill)"},
      {"measurement": "Mortality grading (kill)", "setting": "[10]", "value": "0 (key: O represents less than 30% kill; 1 represents 30 - 49% kill; 2 represents 60 - 90% kill; 3 represents over 90% kill; C indicates a chemosterilant effect.; A indicates an antifeeding effect.)"},
      {"measurement": "Mortality grading (kill)", "setting": "[11]", "value": "0 (key: O represents less than 30% kill; 1 represents 30 - 49% kill; 2 represents 60 - 90% kill; 3 represents over 90% kill; C indicates a chemosterilant effect.; A indicates an antifeeding effect.)"},
      {"measurement": "% Kill of slugs", "setting": "[12]", "value": 50, "unit": "%"},
      {"measurement": "Damage to plants, post-emergence", "setting": "Lettuce", "value": 3},
      {"measurement": "Damage to plants, pre-emergence", "setting": "Lettuce", "value": 3},
      {"measurement": "Damage to plants, post-emergence", "setting": "Tomato", "value": 3},
      {"measurement": "Damage to plants, pre-emergence", "setting": "Tomato", "value": 3},
      {"measurement": "Damage to plants, post-emergence", "setting": "Wheat [13]", "value": 0},
      {"measurement": "Damage to plants, pre-emergence", "setting": "Wheat [13]", "value": 3},
      {"measurement": "Damage to plants, post-emergence", "setting": "Maize", "value": 1},
      {"measurement": "Damage to plants, pre-emergence", "setting": "Maize", "value": 3},
      {"measurement": "Damage to plants, post-emergence", "setting": "Sugar beet", "value": 5},
      {"measurement": "Damage to plants, pre-emergence", "setting": "Sugar beet", "value": 4},
      {"measurement": "Damage to plants, post-emergence", "setting": "Kale", "value": 5},
      {"measurement": "Damage to plants, pre-emergence", "setting": "Kale", "value": 4},
      {"measurement": "Damage to plants, post-emergence", "setting": "Carrot", "value": 5},
      {"measurement": "Damage to plants, pre-emergence", "setting": "Carrot", "value": 4},
      {"measurement": "Damage to plants, post-emergence", "setting": "Pea", "value": 1},
      {"measurement": "Damage to plants, pre-emergence", "setting": "Pea", "value": 3},
      {"measurement": "Damage to plants, post-emergence", "setting": "Onion", "value": 0},
      {"measurement": "Damage to plants, post-emergence", "setting": "Barley [14]", "value": 2},
      {"measurement": "Damage to plants, post-emergence", "setting": "Rice", "value": 0},
      {"measurement": "Damage to plants, post-emergence", "setting": "Oat", "value": 0},
      {"measurement": "Damage to plants, pre-emergence", "setting": "Oat", "value": 0},
      {"measurement": "Damage to plants", "setting": "Barley [15]; [17]", "value": 1},
      {"measurement": "damage to barley (in words)", "setting": "Barley [15]; Tables 13 and 14", "value": "undamaged"},
      {"measurement": "Damage to plants", "setting": "Wheat [16]; [17]", "value": 0},
      {"measurement": "damage to wheat (in words)", "setting": "Wheat [16]; Tables 13 and 14", "value": "undamaged"},
      {"measurement": "damage to the broadleaved plants (in words)", "setting": "broadleaved plants", "value": "caused damage to the broadleaved plants"},
      {"measurement": "Damage to plants", "setting": "Redshank", "value": 5},
      {"measurement": "Damage to plants", "setting": "Mayweed", "value": 5},
      {"measurement": "Damage to plants", "setting": "Speedwell", "value": 0},
      {"measurement": "Damage to plants", "setting": "Knotgrass", "value": 4},
      {"measurement": "Damage to plants", "setting": "Corn Marigold", "value": 3.5}
    ]}
  ]
}
